Tests used:
Type in all cases: cell-based, human
HeLa H2B-GFP cells = test: Chromosome congression analysis; settings: for Congression delay: 10 nM nocodazole or 12 μM proTAME; for Average chromosome congression time / Median chromosome congression time: Fig S4C
Method: HeLa H2B-GFP cells were plated in 35 mm glass-bottom dishes (MatTek) in DMEM+10% FBS at 20% confluence one day prior to the experiment and synchronized by double thymidine block as described above. Drugs were added as follows to a final volume of 3 ml from 2× concentrated preparation in culture medium. DMSO (0.06%), proTAME (3 and 12 μM) or 10 nM Nocodazole were added 8 h after release from the second block, while MG132 (10 μM) was added at 10 h. H2B-GFP was imaged for 4 hrs every 3 min at 40× magnification as described above.

HeLa cells = test: Immunofluorescence of mitotic spindle and interkinetochore distance; parameters: Median inter-kinetochore distance / Average inter-kinetochore distance: unit not given here; settings: for Effect on mitotic spindle: asynchronous HeLa, 2 h, 12 μM proTAME, nocodazole or taxol
Method: HeLa cells grown in DMEM+10% FBS were plated on 25 mm glass coverslips in a E-well dish at a density of 130,000/ml×3 ml 48 h prior to treatment. They were then treated with 0.06% DMSO, 12 μM proTAME, 300 nM nocodazole or 300 nM taxol for 2 h. The cells were washed twice with PBS and fixed with 3% paraformaldehyde for 15 min. The cells were then washed with PBS and permeabilized with PBS plus 0.5% Triton X-100 for 2 min. The cells were then washed with PBS and blocked with PBS plus 5% FBS for 1 h. CREST antisera diluted 1:50 into PBS was added to the cells and incubated at room temperature for 1 h. The cells were washed with PBS and incubated with 1:1000 anti-human-Alexa 568 (Invitrogen, A21090) and 1:100 anti-α-tubulin-FITC for 1 h. The cells were then washed with PBS and the nuclei were stained with 1 μg/ml Hoechst 33342. The cover slips were mounted in 0.1M N-propylgallate in 9:1 glycerol:PBS. Z-series images were taken on a Nikon TE2000 microscope with PerkinElmer spinning disk confocal device. Maximal Z-projection images of individual cells were made by Image J. To measure interkinetochore distances, a straight line was drawn across a kinetochore pair in the same confocal plane and pixel intensities along the line were plotted so that each kinetochore would be represented by a peak on the line. The interkinetochore distance was calculated as the distance between the peaks. Fifty-five kinetochore pairs from 5 cells treated with DMSO or proTAME were measured and the p-value was calculated with a paired student test.

HeLa H2B-RFP cells = test: Exogenous cyclin-GFP expression, live-cell imaging and quantitation; settings: Fig 5D; GFP at 60 min vs onset of mitosis; 20 μM proTAME or proAAME, 150 nM nocodazole
Method: HeLa H2B-RFP cells were transduced with cyclin B1-GFP or cyclin A2-GFP adenovirus for 40 h. Phenol Red-Free DMEM (Mediatech) supplemented with 10% FBS and 1:100 Penicillin-Streptomycin-Glutamine (Mediatech) was used as imaging medium. 20 μM proAAME, 20 μM proTAME or 150 nM nocodazole was added 45 min prior to the start of imaging. Live cell imaging was set up as described above except that the cells were plated in an 8-well chambered coverglasses (NUNC Lab-tek 155411). Four positions per treatment group were imaged with DIC transmitted light, red fluorescence, and green fluorescence (Semrock GFP/HcRed “Pinkel” filter set) at 12 min intervals for 24 h. Stacks of red and green fluorescence were merged, saved as AVI video files and analyzed using ImageJ. For quantitation, the first GFP-positive cells that undergo mitosis in three separate movies were chosen, giving at least 30 cells quantitated for each treatment group. Mean intensity values for the green channel were collected for a cytoplasmic region of a cell upon mitotic entry, mitotic exit, or after 1 h of mitotic arrest. At the same time points, background mean green intensity was determined and individually subtracted from the cytoplasmic mean intensity. This background corrected mean intensity value was then used to determine the percentage of the original GFP signal remaining at the completion of division (for the control cells) or after 1 h of mitotic arrest (for the nocodazole and proTAME treated cells). The average values for all quantitated cells were plotted with the error bars representing standard error of the mean.

[1] = proTAME 12 μM, MG132 10 μM, nocodazole 10 nM

SMILES	Congression delay (HeLa H2B-GFP cells) [min]	Average chromosome congression time (HeLa H2B-GFP cells; [1]) [min]	Median chromosome congression time (HeLa H2B-GFP cells; [1]) [min]	Effect on mitotic spindle (HeLa cells)	Average cyclin A2-GFP (fraction remaining) (HeLa H2B-RFP cells)	Average cyclin B1-GFP (fraction remaining) (HeLa H2B-RFP cells)	Median cyclin A2-GFP (fraction remaining) (HeLa H2B-RFP cells)	Median cyclin B1-GFP (fraction remaining) (HeLa H2B-RFP cells)	Delay in chromosome congression (HeLa H2B-GFP cells; 3 μM proTAME or 10 μM MG132)	Time to achieve metaphase, average (HeLa H2B-GFP cells; Example 2, 12 (μM) proTAME, 15 minutes for DMSO) [min]	Average chromosome congression time (HeLa H2B-GFP cells; proTAME 3 μM) [min]	Median chromosome congression time (HeLa H2B-GFP cells; proTAME 3 μM) [min]	Average inter-kinetochore distance (HeLa cells; Fig 5E, 12 μM proTAME for 2 h)	Median inter-kinetochore distance (HeLa cells; Fig 5E, 12 μM proTAME for 2 h)
COC(=O)Nc1nc2ccc(C(=O)c3cccs3)cc2[nH]1 [Nocodazole, reference compound]	6	26.2	24	strongly perturbed spindle organization	0.28	0.87	0.28	0.83						
COC(=O)[C@H](CCCN/C(=N\C(=O)OCOC(=O)Cc1ccccc1)NC(=O)OCOC(=O)Cc1ccccc1)NS(=O)(=O)c1ccc(C)cc1 [proTAME]	6	26.0	24	no measurable differences in mitotic spindle morphology or inter-kinetochore distance	0.99	1.17	0.95	1.17	caused no delay in chromosome congression	40	21.7	21	1.26	1.28

From patent US9572788B2, “Cell permeable inhibitors of anaphase promoting complex” (President and Fellows of Harvard College, priority 2014, dated 2017)
